According to patent publication US12655116B2, “Substituted isophthalic acid diamides” (Bayer Aktiengesellschaft, priority 2020, dated 2026):

Columns and labels:
POLCO [1] = test: Pre-emergence herbicidal action against POLCO; format: in vivo, Polygonum convolvulus
How it was run: (§1)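 Visual rating at 3 weeks vs untreated pots; 0–100% scale, 100% = plants died. Treatment: aqueous WP/EC spray onto covering soil, 600–800 l/ha, 0.2% wetter, seeds in sandy loam.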

PHBPU [2] = test: Pre-emergence herbicidal action against PHBPU; format: in vivo, Pharbitis purpurea; conditions: dosage 80 g/ha
How it was run: as §1

SETVI [3] = test: Pre-emergence herbicidal action against SETVI; format: in vivo, Setaria viridis
How it was run: as §1

AVEFA [4] = test: Post-emergence herbicidal action against AVEFA; format: in vivo, Avena fatua; conditions: 20 g/ha, visual assessment about 3 weeks after treatment, 100% = plants have died, 0% = like control plants
How it was run: (§2)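 Weeds in sandy loam soil received a post-emergence spray at the one-leaf stage. Compounds were applied as WP or EC in water, 600 to 800 l/ha, with 0.2% wetting agent. Activity in % was judged visually after roughly 3 weeks against untreated plants.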

PHBPU [5] = test: Post-emergence herbicidal action against PHBPU; format: in vivo, Pharbitis purpurea
How it was run: as §2

ALOMY [6] = test: Pre-emergence herbicidal action against ALOMY; format: in vivo, Alopecurus myosuroides; conditions: 80 g/ha, pre-emergence, scored visually after 3 weeks vs untreated controls (100% = plants have died, 0% = like control plants)
How it was run: as §1

LOLRI = test: Pre-emergence herbicidal action against LOLRI; format: in vivo, Lolium rigidum; conditions: 80 g/ha
How it was run: as §1

ALOMY [7] = test: Post-emergence herbicidal action against ALOMY; format: in vivo, Alopecurus myosuroides; conditions: dosage 20 g/ha, visual assessment about 3 weeks after treatment vs untreated controls
How it was run: as §2

AVEFA [8] = test: Pre-emergence herbicidal action against AVEFA; format: in vivo, Avena fatua; conditions: 80 g/ha, pre-emergence
How it was run: as §1

AMARE [9] = test: Pre-emergence herbicidal action against AMARE; format: in vivo, Amaranthus retroflexus
How it was run: as §1

VIOTR [10] = test: Pre-emergence herbicidal action against VIOTR; format: in vivo, Viola tricolor
How it was run: as §1

STEME [11] = test: Post-emergence herbicidal action against STEME; format: in vivo, Stellaria media
How it was run: as §2

VIOTR [12] = test: Post-emergence herbicidal action against VIOTR; format: in vivo, Viola tricolor
How it was run: as §2

ABUTH [13] = test: Pre-emergence herbicidal action against ABUTH; format: in vivo, Abutilon theophrasti; conditions: for Pre-emergence action against ABUTH (herbicidal activity): 80 g/ha, scored visually after 3 weeks vs untreated controls (100% = plants have died, 0% = like control plants); for Pre-emergence action against ABUTH (herbicidal activity in percent): dosage 20 g/ha, scored visually after 3 weeks vs untreated controls, 100% = plants have died, 0% = like control plants
How it was run: as §1

ECHCG [14] = test: Pre-emergence herbicidal action against ECHCG; format: in vivo, Echinochloa crus-galli; conditions: 80 g/ha
How it was run: as §1

ECHCG [15] = test: Post-emergence herbicidal action against ECHCG; format: in vivo, Echinochloa crus-galli
How it was run: as §2

VERPE [16] = test: Post-emergence herbicidal action against VERPE; format: in vivo, Veronica persica; conditions: 20 g/ha
How it was run: as §2

ABUTH [17] = test: Post-emergence herbicidal action against ABUTH; format: in vivo, Abutilon theophrasti; conditions: visual assessment about 3 weeks after treatment vs untreated controls
How it was run: as §2

SETVI [18] = test: Post-emergence herbicidal action against SETVI; format: in vivo, Setaria viridis
How it was run: as §2

MATIN [19] = test: Post-emergence herbicidal action against MATIN; format: in vivo, Matricaria inodora
How it was run: as §2

DIGSA [20] = test: Pre-emergence herbicidal action against DIGSA; format: in vivo, Digitaria sanguinalis
How it was run: as §1

HORMU [21] = test: Pre-emergence herbicidal action against HORMU; format: in vivo, Hordeum murinum; conditions: 80 g/ha, pre-emergence
How it was run: as §1

VERPE [22] = test: Pre-emergence herbicidal action against VERPE; format: in vivo, Veronica persica; conditions: dosage 80 g/ha
How it was run: as §1

MATIN [23] = test: Pre-emergence herbicidal action against MATIN; format: in vivo, Matricaria inodora
How it was run: as §1

HORMU [24] = test: Post-emergence herbicidal action against HORMU; format: in vivo, Hordeum murinum; conditions: dosage 20 g/ha
How it was run: as §2

STEME [25] = test: Pre-emergence herbicidal action against STEME; format: in vivo, Stellaria media
How it was run: as §1

DIGSA [26] = test: Post-emergence herbicidal action against DIGSA; format: in vivo, Digitaria sanguinalis; conditions: for Post-emergence action against DIGSA in %: 5 g/ha; for Post-emergence action against DIGSA: 20 g/ha
How it was run: as §2

AMARE [27] = test: Post-emergence herbicidal action against AMARE; format: in vivo, Amaranthus retroflexus; conditions: 20 g/ha, visual assessment about 3 weeks after treatment, 100% = plants have died, 0% = like control plants
How it was run: as §2

POLCO [28] = test: Post-emergence herbicidal action against POLCO; format: in vivo, Polygonum convolvulus; conditions: dosage 20 g/ha
Procedure: Seeds of monocotyledonous and dicotyledonous weed and crop plants are laid out in sandy loam soil in wood-fiber pots, covered with soil and cultivated in a greenhouse under good growth conditions. 2 to 3 weeks after sowing, the test plants are treated at the one-leaf stage. The compounds of the invention, formulated in the form of wettable powders (WP) or as emulsion concentrates (EC), are then sprayed onto the green parts of the plants in the form of an aqueous suspension or emulsion at a water application rate equivalent to 600 to 800 l/ha, with addition of 0.2% wetting agent. After the test plants have been left to stand in the greenhouse under optimal growth conditions for about 3 weeks, the action of the preparations is assessed visually in comparison to untreated controls (herbicidal action in percent (%): 100% activity=the plants have died, 0% activity=like control plants). […] The tables below illustrate, in an illustrative manner, the post-emergence herbicidal action of the compounds of the invention, the herbicidal activity being stated in percent.

[29] = 20 g/ha, scored visually after 3 weeks vs untreated controls, 100% = plants have died, 0% = like control plants
[30] = 80 g/ha, scored visually after 3 weeks vs untreated controls (100% = plants have died, 0% = like control plants)

CCn1nnnc1NC(=O)c1ccc(C(F)(F)F)c(C(=O)NC)c1C [Example 2-25]
80%: Pre-emergence action against PHBPU in % (PHBPU [2]) | Post-emergence action against PHBPU in % (PHBPU [5]; dosage 5 g/ha) | Pre-emergence action against LOLRI in % (LOLRI) | Post-emergence action against VIOTR in % (VIOTR [12]; 5 g/ha) | Post-emergence action against ECHCG in % (ECHCG [15]; dosage 20 g/ha) | Post-emergence action against SETVI in % (SETVI [18]; dosage 20 g/ha) | Post-emergence action against HORMU in % (HORMU [24]) | Post-emergence action against DIGSA in % (DIGSA [26])
90%: Post-emergence action against PHBPU in % (PHBPU [5]; dosage 20 g/ha) | Pre-emergence action against ALOMY (herbicidal activity) (ALOMY [6]) | Post-emergence action against ALOMY in % (ALOMY [7]) | Post-emergence action against STEME in % (STEME [11]; dosage 5 g/ha) | Post-emergence action against VIOTR in % (VIOTR [12]; 20 g/ha) | Post-emergence action against VERPE in % (VERPE [16]) | Post-emergence action against MATIN in % (MATIN [19]; dosage 5 g/ha) | Pre-emergence action against HORMU in % (HORMU [21]) | Pre-emergence action against STEME in % (STEME [25]; dosage 20 g/ha) | Post-emergence action against DIGSA (DIGSA [26])
100%: Pre-emergence action against POLCO in % (POLCO [1]; dosage 20 g/ha) | Pre-emergence action against POLCO in % (POLCO [1]; dosage 80 g/ha) | Pre-emergence action against SETVI in % (SETVI [3]; dosage 20 g/ha) | Pre-emergence action against SETVI in % (SETVI [3]; dosage 80 g/ha) | Post-emergence action at 20 g/ha against AVEFA in % (AVEFA [4]) | Pre-emergence action against AVEFA in % (AVEFA [8]) | Pre-emergence action against AMARE in % (AMARE [9]; [29]) | Pre-emergence action against AMARE in % (AMARE [9]; [30]) | Pre-emergence action against VIOTR in % (VIOTR [10]; dosage 80 g/ha) | Post-emergence action against STEME in % (STEME [11]; 20 g/ha) | Pre-emergence action against ABUTH (herbicidal activity) (ABUTH [13]) | Pre-emergence action against ABUTH (herbicidal activity in percent) (ABUTH [13]) | Pre-emergence action against ECHCG in % (ECHCG [14]) | Post-emergence action against ABUTH in % (ABUTH [17]; dosage 5 g/ha) | Post-emergence action against ABUTH in % (ABUTH [17]; dosage 20 g/ha) | Post-emergence action against MATIN in % (MATIN [19]; dosage 20 g/ha) | Pre-emergence action against DIGSA in % (DIGSA [20]; dosage 20 g/ha) | Pre-emergence action against DIGSA in % (DIGSA [20]; dosage 80 g/ha) | Pre-emergence action against VERPE in % (VERPE [22]) | Pre-emergence action against MATIN in % (MATIN [23]; dosage 20 g/ha) | Pre-emergence action against MATIN in % (MATIN [23]; dosage 80 g/ha) | Pre-emergence action against STEME in % (STEME [25]; dosage 80 g/ha)

CCNC(=O)c1c(C(F)F)ccc(C(=O)Nc2nnnn2CC)c1SC [Example 2-88]
80%: Post-emergence action at 20 g/ha against AVEFA in % (AVEFA [4]) | Post-emergence action against PHBPU in % (PHBPU [5]; dosage 5 g/ha) | Pre-emergence action against LOLRI in % (LOLRI) | Post-emergence action against ALOMY in % (ALOMY [7]) | Post-emergence action against VIOTR in % (VIOTR [12]; 5 g/ha) | Post-emergence action against ECHCG in % (ECHCG [15]; dosage 5 g/ha) | Post-emergence action against ECHCG in % (ECHCG [15]; dosage 20 g/ha) | Post-emergence action against VERPE in % (VERPE [16]) | Post-emergence action against MATIN in % (MATIN [19]; dosage 20 g/ha) | Pre-emergence action against HORMU in % (HORMU [21]) | Post-emergence action against HORMU in % (HORMU [24])
90%: Pre-emergence action against POLCO in % (POLCO [1]; dosage 80 g/ha) | Pre-emergence action against PHBPU in % (PHBPU [2]) | Post-emergence action against PHBPU in % (PHBPU [5]; dosage 20 g/ha) | Pre-emergence action against ALOMY (herbicidal activity) (ALOMY [6]) | Pre-emergence action against AVEFA in % (AVEFA [8]) | Post-emergence action against STEME in % (STEME [11]; dosage 5 g/ha) | Post-emergence action against VIOTR in % (VIOTR [12]; 20 g/ha) | Post-emergence action against ABUTH in % (ABUTH [17]; dosage 5 g/ha) | Post-emergence action against ABUTH in % (ABUTH [17]; dosage 20 g/ha) | Post-emergence action against SETVI in % (SETVI [18]; dosage 5 g/ha) | Post-emergence action at 20 g/ha against AMARE in % (AMARE [27]) | Post-emergence action against DIGSA in % (DIGSA [26]) | Post-emergence action against DIGSA (DIGSA [26])
100%: Pre-emergence action against SETVI in % (SETVI [3]; dosage 80 g/ha) | Pre-emergence action against AMARE in % (AMARE [9]; [29]) | Pre-emergence action against AMARE in % (AMARE [9]; [30]) | Pre-emergence action against VIOTR in % (VIOTR [10]; dosage 20 g/ha) | Pre-emergence action against VIOTR in % (VIOTR [10]; dosage 80 g/ha) | Post-emergence action against STEME in % (STEME [11]; 20 g/ha) | Pre-emergence action against ABUTH (herbicidal activity) (ABUTH [13]) | Pre-emergence action against ABUTH (herbicidal activity in percent) (ABUTH [13]) | Pre-emergence action against ECHCG in % (ECHCG [14]) | Post-emergence action against SETVI in % (SETVI [18]; dosage 20 g/ha) | Pre-emergence action against DIGSA in % (DIGSA [20]; dosage 20 g/ha) | Pre-emergence action against DIGSA in % (DIGSA [20]; dosage 80 g/ha) | Pre-emergence action against VERPE in % (VERPE [22]) | Pre-emergence action against MATIN in % (MATIN [23]; dosage 20 g/ha) | Pre-emergence action against MATIN in % (MATIN [23]; dosage 80 g/ha) | Pre-emergence action against STEME in % (STEME [25]; dosage 20 g/ha) | Pre-emergence action against STEME in % (STEME [25]; dosage 80 g/ha)

CCNC(=O)c1c(Br)ccc(C(=O)Nc2nnc(C)o2)c1Cl [Example 6-141]
100%: Pre-emergence action against AMARE in % (AMARE [9]; [30]) | Pre-emergence action against DIGSA in % (DIGSA [20]; dosage 80 g/ha) | Post-emergence action at 20 g/ha against AMARE in % (AMARE [27])
90%: Pre-emergence action against ALOMY (herbicidal activity) (ALOMY [6]) | Post-emergence action against ALOMY in % (ALOMY [7]) | Pre-emergence action against ECHCG in % (ECHCG [14]) | Pre-emergence action against DIGSA in % (DIGSA [20]; dosage 20 g/ha)
80%: Post-emergence action against POLCO in % (POLCO [28]) | Pre-emergence action against AVEFA in % (AVEFA [8]) | Post-emergence action against VIOTR in % (VIOTR [12]; 20 g/ha) | Post-emergence action against ECHCG in % (ECHCG [15]; dosage 20 g/ha) | Post-emergence action against ABUTH in % (ABUTH [17]; dosage 20 g/ha) | Pre-emergence action against MATIN in % (MATIN [23]; dosage 80 g/ha) | Post-emergence action against DIGSA (DIGSA [26])
